From US8354441B2, “Oxazoline derivatives” (Hoffmann-La Roche Inc., priority 2009, dated 2013)

Experiments:
mouse TAAR1 = target: T1, mouse TAAR1 (Mus musculus, UniProt Q923Y8); test: TAAR1 radioligand binding with [3H]-rac-2-(1,2,3,4-tetrahydro-1-naphthyl)-2-imidazoline, membranes of stably transfected HEK293 cells; details: first value of the cell, read-out: Ki (μM) mouse/rat: mouse
T1 construct: expressed in transfected cells; host or cells: HEK293 (ATCC # CRL-1573), stably transfected with pIRESneo2 expression plasmid
Protocol: (§1) For the construction of expression plasmids the coding sequences of human, rat and mouse TAAR 1 were amplified from genomic DNA essentially as described by Lindemann et al.. The Expand High Fidelity PCR System (Roche Diagnostics) was used with 1.5 mM Mg^2+ and purified PCR products were cloned into pCR2.1-TOPO cloning vector (Invitrogen) following the instructions of the manufacturer. PCR products were subcloned into the pIRESneo2 vector (BD Clontech, Palo Alto, Calif.), and expression vectors were sequence verified before introduction in cell lines.
(§2) HEK293 cells (ATCC # CRL-1573) were cultured essentially as described by Lindemann et al. (2005). For the generation of stably transfected cell lines HEK293 cells were transfected with the pIRESneo2 expression plasmids containing the TAAR coding sequences (described above) with Lipofectamine 2000 (Invitrogen) according to the instructions of the manufacturer, and 24 hrs post transfection the culture medium was supplemented with 1 mg/ml G418 (Sigma, Buchs, Switzerland). After a culture period of about 10 d clones were isolated, expanded and tested for responsiveness to trace amines (all compounds purchased from Sigma) with the cAMP Biotrak Enzyme immunoassay (EIA) System (Amersham) following the non-acetylation EIA procedure provided by the manufacturer.
(§3) Cells at confluence were rinsed with ice-cold phosphate buffered saline without Ca^2+ and Mg^2+ containing 10 mM EDTA and pelleted by centrifugation at 1000 rpm for 5 min at 4° C. The pellet was then washed twice with ice-cold phosphate buffered saline and the cell pellet was frozen immediately by immersion in liquid nitrogen and stored until use at −80° C. The cell pellet was then suspended in 20 ml HEPES-NaOH (20 mM), pH 7.4 containing 10 mM EDTA, and homogenized with a Polytron (PT 3000, Kinematica) at 10,000 rpm for 10 s. The homogenate was centrifuged at 48,000×g for 30 min at 4° C. and the pellet resuspended in 20 ml HEPES-NaOH (20 mM), pH 7.4 containing 0.1 mM EDTA (buffer A), and homogenized with a Polytron at 10,000 rpm for 10 s. The homogenate was then centrifuged at 48,000×g for 30 min at 4° C. and the pellet resuspended in 20 ml buffer A, and homogenized with a Polytron at 10,000 rpm for 10 s. Protein concentration was determined by the method of Pierce (Rockford, Ill.). The homogenate was then centrifuged at 48,000×g for 10 min at 4° C., resuspended in HEPES-NaOH (20 mM), pH 7.0 including MgCl2 (10 mM) and […] homogenized with a Polytron at 10,000 rpm for 10 s.
(§4) The binding assay was performed at 4° C. in a final volume of 1 ml, and with an incubation time of 30 min. The radioligand [^3H]-rac-2-(1,2,3,4-tetrahydro-1-naphthyl)-2-imidazoline was used at a concentration equal to the calculated Kd value of 60 nM to give a bound at around 0.1% of the total added radioligand concentration, and a specific binding which represented approximately 70-80% of the total binding. Non-specific binding was defined as the amount of [^3H]-rac-2-(1,2,3,4-tetrahydro-1-naphthyl)-2-imidazoline bound in the presence of the appropriate unlabelled ligand (10 μM). Competing ligands were tested in a wide range of concentrations (10 pM-30 μM). […] Each experiment was performed in duplicate. All incubations were terminated by rapid filtration through UniFilter-96 plates (Packard Instrument Company) and glass filter GF/C, pre-soaked for at least 2 h in polyethylenimine 0.3%, and using a Filtermate 96 Cell Harvester (Packard Instrument Company). The tubes and filters were then washed 3 times with 1 ml aliquots of cold buffer B. Filters were not dried and soaked in Ultima gold (45 μl/well, Packard Instrument Company) and bound radioactivity was counted by a TopCount Microplate Scintillation Counter (Packard Instrument Company).

rat TAAR1 = target: T2, rat TAAR1 (Rattus norvegicus, UniProt Q923Y9); test: as above; details: second value of the cell, read-out: Ki (μM) mouse/rat: rat
T2 construct: expressed in transfected cells; host or cells: HEK293 (ATCC # CRL-1573), stably transfected with pIRESneo2 expression plasmid
Protocol: as §1, §2, §3, §4

T2 sequence (Q923Y9 whole entry): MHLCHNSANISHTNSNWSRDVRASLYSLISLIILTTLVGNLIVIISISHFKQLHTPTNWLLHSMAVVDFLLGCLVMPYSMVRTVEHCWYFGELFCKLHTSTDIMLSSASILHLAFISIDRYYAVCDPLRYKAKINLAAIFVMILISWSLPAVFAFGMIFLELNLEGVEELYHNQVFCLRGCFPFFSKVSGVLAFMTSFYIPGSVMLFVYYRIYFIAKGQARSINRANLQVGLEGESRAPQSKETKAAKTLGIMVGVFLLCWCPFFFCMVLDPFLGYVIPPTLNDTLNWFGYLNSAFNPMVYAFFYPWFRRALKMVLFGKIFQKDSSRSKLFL
T1 sequence (Q923Y8 whole entry): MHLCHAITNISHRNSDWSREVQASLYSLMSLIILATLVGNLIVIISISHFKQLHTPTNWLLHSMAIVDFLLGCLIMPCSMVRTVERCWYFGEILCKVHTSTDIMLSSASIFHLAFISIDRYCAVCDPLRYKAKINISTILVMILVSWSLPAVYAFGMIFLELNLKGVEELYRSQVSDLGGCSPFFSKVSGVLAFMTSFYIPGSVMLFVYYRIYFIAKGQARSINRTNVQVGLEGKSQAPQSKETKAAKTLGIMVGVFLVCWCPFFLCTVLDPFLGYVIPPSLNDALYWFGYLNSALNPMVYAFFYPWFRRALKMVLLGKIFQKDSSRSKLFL

Structure (SMILES)	Ki (mouse TAAR1)	Ki (rat TAAR1)
CCOc1ccc(C(=O)Nc2ccc(CC[C@H]3COC(N)=N3)cc2)nc1 [Example 153, (S)-N-(4-(2-(2-Amino-4,5-dihydrooxazol-4-yl)ethyl)phenyl)-5-ethoxypicolinamide]	0.0009 µM	0.001 µM
NC1=N[C@@H](CCc2ccc(NC(=O)c3cncc(Cl)n3)cc2)CO1 [Example 160, (S)-N-(4-(2-(2-Amino-4,5-dihydrooxazol-4-yl)ethyl)phenyl)-6-chloropyrazine-2-carboxamide]	0.0047 µM	0.0018 µM
NC1=N[C@@H](CCc2ccc(NC(=O)CCc3ccccc3Cl)cc2)CO1 [Example 80, N-{4-[2-((S)-2-Amino-4,5-dihydro-oxazol-4-yl)-ethyl]-phenyl}-3-(2-chloro-phenyl)-propionamide]	0.0014 µM	0.0011 µM
COc1cc(C(=O)Nc2ccc(CC[C@H]3COC(N)=N3)cc2)nc(OC)n1 [Example 190, (S)-N-(4-(2-(2-Amino-4,5-dihydrooxazol-4-yl)ethyl)phenyl)-2,6-dimethoxypyrimidine-4-carboxamide]	0.0041 µM	0.004 µM
N#Cc1ccc(C(=O)Nc2ccc(CC[C@H]3COC(N)=N3)cc2)cn1 [Example 111, N-{4-[2-((S)-2-Amino-4,5-dihydro-oxazol-4-yl)-ethyl]-phenyl}-6-cyano-nicotinamide]	0.004 µM	0.0057 µM
NC1=N[C@@H](CCc2ccc(NC(=O)c3cnc(N4CCCCC4)nc3)cc2)CO1 [Example 123, (S)-N-(4-(2-(2-Amino-4,5-dihydrooxazol-4-yl)ethyl)phenyl)-2-(piperidin-1-yl)pyrimidine-5-carboxamide]	0.0007 µM	0.0017 µM
Cn1cc(Cl)c(C(=O)Nc2ccc(CC[C@H]3COC(N)=N3)cc2)n1 [Example 194, (S)-N-(4-(2-(2-Amino-4,5-dihydrooxazol-4-yl)ethyl)phenyl)-4-chloro-1-methyl-1H-pyrazole-3-carboxamide]	0.0091 µM	0.0035 µM
NC1=N[C@@H](CCc2ccc(NC(=O)c3ccc(-n4cccn4)nc3)cc2)CO1 [Example 85, N-{4-[2-((S)-2-Amino-4,5-dihydro-oxazol-4-yl)-ethyl]-phenyl}-6-pyrazol-1-yl-nicotinamide]	0.0012 µM	0.0015 µM
COc1cc(C(=O)Nc2ccc(CC[C@H]3COC(N)=N3)cc2)nc(C(C)C)n1 [Example 207, 2-Isopropyl-6-methoxy-pyrimidine-4-carboxylic acid {4-[2-((S)-2-amino-4,5-dihydro-oxazol-4-yl)-ethyl]-phenyl}-amide]	0.0007 µM	0.0011 µM
COc1ccc(CC(=O)Nc2ccc(CC[C@H]3COC(N)=N3)cc2)cc1 [Example 68, N-{4-[2-((S)-2-Amino-4,5-dihydro-oxazol-4-yl)-ethyl]-phenyl}-2-(4-methoxy-phenyl)-acetamide]	0.0043 µM	0.0019 µM
NC1=N[C@@H](CCc2ccc(NC(=O)c3cc(Cl)cc(Cl)n3)cc2)CO1 [Example 158, (S)-N-(4-(2-(2-Amino-4,5-dihydrooxazol-4-yl)ethyl)phenyl)-4,6-dichloropicolinamide]	0.0006 µM	0.0006 µM
COc1cc(C(=O)Nc2ccc(CC[C@@H]3N=C(N)O[C@H]3C)cc2)nc(Cl)n1 [Example 219, 2-Chloro-6-methoxy-pyrimidine-4-carboxylic acid {4-[2-((4S,5S)-2-amino-5-methyl-4,5-dihydro-oxazol-4-yl)-ethyl]-phenyl}-amide]	0.0048 µM	0.0037 µM
C#Cc1ccc(NC(=O)c2ccc(CC[C@H]3COC(N)=N3)cc2)nc1 [Example 152, (S)-4-(2-(2-Amino-4,5-dihydrooxazol-4-yl)ethyl)-N-(5-ethynylpyridine-2-yl)benzamide]	0.008 µM	0.0002 µM
NC1=N[C@@H](CCc2ccc(NC(=O)C(F)(F)c3ccc(Cl)c(Cl)c3)cc2)CO1 [Example 125, (S)-N-(4-(2-(2-Amino-4,5-dihydrooxazol-4-yl)ethyl)phenyl)-2-(3,4-dichlorophenyl)-2,2-difluoroacetamide]	0.0006 µM	0.0011 µM
NC1=N[C@@H](CCc2ccc(C(=O)Nc3ccc(Cl)cn3)cc2)CO1 [Example 131, (S)-4-(2-(2-Amino-4,5-dihydrooxazol-4-yl)ethyl)-N-(5-chloropyridin-2-yl)benzamide]	0.004 µM	0.0008 µM
NC1=N[C@@H](CCc2ccc(NC(=O)c3ccc(Cl)nc3)cc2)CO1 [Example 31, N-{4-[2-((S)-2-Amino-4,5-dihydro-oxazol-4-yl)-ethyl]-phenyl}-6-chloro-nicotinamide]	0.0025 µM	0.0035 µM
COc1ccc(C(=O)Nc2ccc(CC[C@H]3COC(N)=N3)cc2)cc1 [Example 71, N-{4-[2-((S)-2-Amino-4,5-dihydro-oxazol-4-yl)-ethyl]-phenyl}-4-methoxy-benzamide]	0.0009 µM	0.0005 µM
NC1=N[C@@H](CCc2ccc(NC(=O)c3ccnc(Cl)c3F)cc2)CO1 [Example 174, (S)-N-(4-(2-(2-Amino-4,5-dihydrooxazol-4-yl)ethyl)phenyl)-2-chloro-3-fluoroisonicotinamide]	0.0035 µM	0.0016 µM
NC1=N[C@@H](CCc2ccc(NC(=O)c3cccnc3F)cc2)CO1 [Example 99, (S)-N-(4-(2-(2-amino-4,5-dihydrooxazol-4-yl)ethyl)phenyl)-2-fluoronicotinamide]	0.0081 µM	0.0018 µM
NC1=N[C@@H](CCc2ccc(NC(=O)c3cnc(C(F)(F)F)nc3C3CC3)cc2)CO1 [Example 209, (S)-N-(4-(2-(2-Amino-4,5-dihydrooxazol-4-yl)ethyl)phenyl)-4-cyclopropyl-2-(trifluoromethyl)pyrimidine-5-carboxamide]	0.0013 µM	0.0035 µM
NC1=N[C@@H](CCc2ccc(NC(=O)C3CCC(C(F)(F)F)CC3)cc2)CO1 (stereo partly drawn) [Example 79, 4-Trifluoromethyl-cyclohexanecarboxylic acid {4-[2-((S)-2-amino-4,5-dihydro-oxazol-4-yl)-ethyl]-phenyl}-amide]	0.0057 µM	0.0051 µM
NC1=N[C@@H](CCc2ccc(NC(=O)C3CCCC3)cc2)CO1 [Example 43, Cyclopentanecarboxylic acid {4-[2-((S)-2-amino-4,5-dihydro-oxazol-4-yl)-ethyl]-phenyl}-amide]	0.0029 µM	0.002 µM
Cc1cnc(C(=O)Nc2ccc(CC[C@H]3COC(N)=N3)cc2)cn1 [Example 129, (S)-N-(4-(2-(2-Amino-4,5-dihydrooxazol-4-yl)ethyl)phenyl)-5-methylpyrazine-2-carboxamide]	0.0039 µM	0.0033 µM
NC1=N[C@@H](CCc2ccc(NC(=O)c3ccc(F)nc3)cc2)CO1 [Example 121, (S)-N-(4-(2-(2-Amino-4,5-dihydrooxazol-4-yl)ethyl)phenyl)-6-fluoronicotinamide]	0.0032 µM	0.0046 µM
CC(C)c1ocnc1C(=O)Nc1ccc(CC[C@H]2COC(N)=N2)cc1 [Example 215, (S)-N-(4-(2-(2-Amino-4,5-dihydrooxazol-4-yl)ethyl)phenyl)-5-isopropyloxazole-4-carboxamide]	0.0012 µM	0.0038 µM
NC1=N[C@@H](CCc2ccc(NC(=O)c3nc(Cl)ccc3F)cc2)CO1 [Example 89, 6-Chloro-3-fluoro-pyridine-2-carboxylic acid {4-[2-((S)-2-amino-4,5-dihydro-oxazol-4-yl)-ethyl]-phenyl}-amide]	0.0044 µM	0.0007 µM
